Experimental data published in patent publication US12115193B2, “Methods of using RARγ agonists for cancer treatment” (Io Therapeutics, Inc., priority 2021, dated 2024).

Assays:
EMT6 cells = assay: EMT6 syngeneic mouse model of triple negative breast cancer (Example 3); type: in vivo; settings: 21 daily oral doses 10 mg/kg; at the end of the study
Description: The RARγ agonists tazarotenic acid and GA2E were evaluated in the EMT6 syngeneic mouse model of breast cancer. 5×10^5 EMT6 cells were injected into the mammary fat pad of immunocompetent female Balb/c mice. When the tumors reached an average volume of 50-150 mm^3, mice were matched by tumor size into control or treatment groups (n=10-11).
The mice were treated with 21 daily oral doses 10 mg/kg of 1 mg/ml tazarotenic acid or GA2E, or vehicle control, starting on Day 0. Tumor volume was measured, and the mice weighed, on days 0, 1, 3, 6, 8, 10, 13, 15, 17, 20, and 21.

RARγ = target: T1, RARγ (Homo sapiens, UniProt P13631); assay: RARγ transactivation assay (luciferase reporter); type: cell-based; settings: at all tested concentrations (0.5 to 625 nM); receptor not given
T1 construct: expression plasmids encoding the full-length receptors RARα and RARγ; expressed in transfected cells
T1 sequence (P13631 1-454): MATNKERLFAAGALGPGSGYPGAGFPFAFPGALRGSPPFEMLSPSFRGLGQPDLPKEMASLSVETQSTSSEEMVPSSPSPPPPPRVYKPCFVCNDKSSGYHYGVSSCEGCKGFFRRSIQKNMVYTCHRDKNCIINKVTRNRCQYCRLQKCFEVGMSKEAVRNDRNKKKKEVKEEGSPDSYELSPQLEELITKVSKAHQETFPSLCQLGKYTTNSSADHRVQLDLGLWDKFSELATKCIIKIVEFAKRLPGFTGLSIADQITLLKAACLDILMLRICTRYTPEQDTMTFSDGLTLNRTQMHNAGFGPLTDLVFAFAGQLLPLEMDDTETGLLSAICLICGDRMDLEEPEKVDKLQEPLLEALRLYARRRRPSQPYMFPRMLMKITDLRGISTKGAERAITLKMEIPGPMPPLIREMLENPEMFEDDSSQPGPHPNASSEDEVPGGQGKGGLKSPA
Description: Transactivation assays were conducted to test the specificity of binding activity of GA1E and GA2E for RARα and RARγ. Retinoic acid receptor transactivation activity and binding efficiencies were determined essentially as described in U.S. Pat. Nos. 5,298,429 and 5,071,773, incorporated by reference herein for all they teach regarding transactivation assays. Transactivation assays employed expression plasmids encoding the full-length receptors RARα and RARγ. Reporter plasmids containing the herpes virus thymidine kinase promoter and the appropriate retinoic acid receptor response element (RAREs) were positioned upstream of an open coding region encoding firefly luciferase.
The ability of GA1E and GA2E to activate RARα and RARγ in a transactivation assay was tested over a concentration range of 0.5 to 625 nM (GA2E) or 0.05 to 3320 nM (GA1E). GA1E induced less than 10% transactivation for RARα across the whole concentration range, but over 50% transactivation for RARγ at concentrations ≥25 nM and over 70% at concentrations 125 nM (FIG. 3A). GA2E induced more than 85% transactivation at all tested concentrations and less than 10% transactivation of RARα at concentrations of ≤25 nM (FIG. 3B).

JIMT-1 cells = assay: NSG-B2M mice implanted with JIMT-1 Her2+ breast cancer cells and human PBMC; type: in vivo
Description: The NSG-B2M mouse model is a severely immunocompromised animal, combining the lesions non-obese diabetic (NOD), severe combined immunodeficiency (SCID), IL-2 receptor γ null, and β2-microglobulin null. Human tumor cells readily engraft in this model and cells from the human immune system can also be engrafted in order to study various modes of cancer immunotherapy. Thus, one can model a human immune response to a human tumor in this system. Female NSG-B2M mice were injected in the mammary fat pad with 5×10^6 JIMT-1 cells (human breast carcinoma cell line) suspended in 0.1 mL of phosphate-buffered saline (PBS) with an equal volume of Matrigel®. Once tumors reached a volume of 100-200 mm^3, the mice were implanted with 1×10^7 human PBMC by subcutaneous injection into the right flank (pre-randomization). PBMC were obtained from two donors and distributed evenly between groups. When tumors reached an average tumor volume of 200-250 mm^3 (about 3 days post-PBMC injection) animals were matched by tumor volume into treatment and control groups, and dosing initiated. This first day of dosing was defined as Day 0. The mice were administered a daily oral dose of 10 mL/kg of 10% dimethyl sulfoxide (DMSO) in PBS as vehicle control or 10 mg/kg of GA2E dissolved in 10% DMSO in PBS as the treatment.
Tumor volume was measured twice weekly and on the day a study endpoint was reached. The mice were also weighed twice weekly and on the day a study endpoint was reached.
Study endpoint was defined as when the mean tumor volume of the control group (uncensored) reaches 1500 mm^3. If this occurs before Day 28, treatment groups and individual mice were permitted to be dosed and measured up to Day 28.

LLC cells = assay: LLC syngeneic model in C57BL/6 mice (Example 10); type: in vivo
Description: The LLC model is based on an epidermoid carcinoma of the lung that spontaneously arose in a C57BL/6 mouse some 70 years ago, Syngeneic models have been useful in predicting clinical benefit. C57BL/6 mice, 6-8 weeks old, were injected subcutaneously in the left flank with 0.1 mL containing 3×10^5 LLC cells. When tumors reached an average tumor volume of 50-150 mm^3, the mice were matched by tumor size and sorted into control and treatment groups, and dosing initiated (Day 0). Three groups of 10 mice each were established: vehicle control, 10 mg/kg GA2E, and 25 mg/kg GA2E. The mice received one oral dose per day for 13 days. Tumor volumes and weight were measured on days 0, 2, 4, 6, 9, 11, and 13. This study was ended on Day 13, as the average tumor volume was >1500 mm^3, and the tumors analyzed by flow cytometry. Two animals in the 10 mg/kg group and one animal in the 25 mg/kg group were terminated early due to ulceration of the tumor.

[1] = 10 mg/kg oral daily for 13 days
[2] = 25 mg/kg oral daily for 13 days

CC1(C)CCC(C)(C)c2cc(C(/C=C/c3ccc(C(=O)O)cc3F)=N/O)ccc21 [GA2E, 3-fluoro-4-((1E,3E)-3-(hydroxyimino)-3-(5,5,8,8-tetramethyl-5,6,7,8-tetrahydronaphthalen-2-yl)prop-1-en-1-yl)benzoic acid]
tumor growth inhibition (EMT6 cells): 63%
transactivation (RARγ): more than 85%
tumor volume after drug holiday started on Day 13 (JIMT-1 cells; 10 mg/kg daily oral until Day 12, then drug holiday): tumor shrinkage subsequent to Day 19
tumor growth while the mice were receiving drug (JIMT-1 cells; 10 mg/kg daily oral, Day 0 to Day 12): No impact on tumor growth
weight loss (JIMT-1 cells; 10 mg/kg daily oral, by Day 12): > 10%
tolerability (LLC cells; [1]): well tolerated
tumor growth (LLC cells; [1]): inhibited tumor growth
weight loss over the course of the study (LLC cells; [1]): minimal weight loss
tolerability (LLC cells; [2]): less well tolerated
tumor growth (LLC cells; [2]): inhibited tumor growth
weight loss (LLC cells; 25 mg/kg oral daily, by about Day 10): exceeding 10%
